In the assay the target is T1, Type-2 angiotensin II receptor (Homo sapiens, UniProt P50052).
T1 sequence (P50052 whole entry): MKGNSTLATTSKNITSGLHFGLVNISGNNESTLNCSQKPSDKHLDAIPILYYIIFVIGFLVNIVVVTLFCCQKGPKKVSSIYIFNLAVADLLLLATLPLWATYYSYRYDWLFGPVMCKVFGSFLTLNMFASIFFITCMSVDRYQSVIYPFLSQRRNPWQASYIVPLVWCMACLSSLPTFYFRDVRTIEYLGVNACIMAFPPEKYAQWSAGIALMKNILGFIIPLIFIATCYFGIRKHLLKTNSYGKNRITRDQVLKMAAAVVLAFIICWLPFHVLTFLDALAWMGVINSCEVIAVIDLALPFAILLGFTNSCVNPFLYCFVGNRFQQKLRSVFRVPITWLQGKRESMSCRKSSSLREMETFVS
The assay is described as follows: AT2 Receptor Binding Assay: 120 μL membrane ([…]) was incubated with 15 μL of [125I]-CGP42112A and 15 μL of compound at RT for 1.5 hrs.The binding reaction was stopped by rapid filtration through Unifilter GF/C plates (presoaked in 0.3% (v:v) BSA).Plate was washed three times with ice cold wash buffer.The filtration plates were dried at 37° C. overnight.50 μL of scintillation cocktail was added to each well.Radioactivity was determined using MicroBetaTriltuunicroplate scintillation counter.

For the compound `O=C(O)[C@@H]1CN(CC#Cc2ccc(F)cc2)CCN1C(=O)C(c1ccccc1)c1ccccc1`, the half-maximal inhibitory concentration (IC50) (commonly the concentration that inhibits the measured activity by half) stood at 3.92 µM.

(Values after ChEMBL document CHEMBL5725503, “Heterocyclic compounds and methods for their use” (2017).)
